Values joined by “and” are separate entries in the source; they are usually repeats but may differ in a detail not shown here. Equal values may be shown once. Toxic doses and inconclusive results are not listed.
Tested on: BDF1 mice, P388 leukemia ip, median survival T/C
Experiment: NCI In Vivo Anticancer Drug Screen. Data for tumor model P388 Leukemia (intraperitoneal) in B6D2F1 (BDF1) mice
Details: endpoint: median survival time, higher = longer survival
In short: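 Compound-treated tumour-bearing mice were compared with vehicle-treated controls. Survival was recorded, and the value is the treated-group measurement divided by the control-group measurement (T/C).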

[1] = dose: 6.25 mg/kg/injection, schedule: Q01DX009 (ip), vehicle: saline with Tween-80
[2] = dose: 50.0 mg/kg/injection, schedule: Q01DX009 (ip), vehicle: saline with Tween-80
[3] = dose: 400.0 mg/kg/injection, schedule: Q04DX003 (ip), vehicle: saline with Tween-80
[4] = dose: 6.25 mg/kg/injection, schedule: Q01DX009 (ip), vehicle: saline
[5] = dose: 12.5 mg/kg/injection, schedule: Q01DX009 (ip), vehicle: saline
[6] = dose: 12.5 mg/kg/injection, schedule: Q04DX003 (ip), vehicle: Klucel (hydroxypropylcellulose) (HPC)
[7] = dose: 25.0 mg/kg/injection, schedule: Q01DX009 (ip), vehicle: saline
[8] = dose: 25.0 mg/kg/injection, schedule: Q04DX003 (ip), vehicle: Klucel (hydroxypropylcellulose) (HPC)
[9] = dose: 50.0 mg/kg/injection, schedule: Q04DX003 (ip), vehicle: Klucel (hydroxypropylcellulose) (HPC)
[10] = dose: 100.0 mg/kg/injection, schedule: Q04DX003 (ip), vehicle: Klucel (hydroxypropylcellulose) (HPC)
[11] = dose: 12.5 mg/kg/injection, schedule: Q04DX003 (ip), vehicle: saline
[12] = dose: 100.0 mg/kg/injection, schedule: Q01DX009 (ip), vehicle: Klucel (hydroxypropylcellulose) (HPC)
[13] = dose: 200.0 mg/kg/injection, schedule: Q01DX009 (ip), vehicle: Klucel (hydroxypropylcellulose) (HPC)
[14] = dose: 100.0 mg/kg/injection, schedule: Q01DX009 (ip), vehicle: saline with Tween-80
[15] = dose: 200.0 mg/kg/injection, schedule: Q01DX009 (ip), vehicle: saline with Tween-80
[16] = dose: 100.0 mg/kg/injection, schedule: Q01DX009 (ip), vehicle: saline

NC(=O)NN=C(CS)CS
T/C (dose: 6.25 mg/kg/injection, schedule: Q01DX009 (ip), vehicle: gum acacia): 101 % of control
T/C (dose: 12.5 mg/kg/injection, schedule: Q01DX009 (ip), vehicle: gum acacia): 100 % of control
T/C (dose: 25.0 mg/kg/injection, schedule: Q01DX009 (ip), vehicle: gum acacia): 102 % of control
T/C (dose: 50.0 mg/kg/injection, schedule: Q01DX009 (ip), vehicle: gum acacia): 100 % of control

CC(C)=CCc1cc(O)ccc1O
T/C [1]: 108 % of control
T/C (dose: 25.0 mg/kg/injection, schedule: Q01DX009 (ip), vehicle: saline with Tween-80): 112 % of control
T/C [2]: 101 % of control

O=S(=O)(OCCCl)C(F)(F)F
T/C (dose: 1.56 mg/kg/injection, schedule: Q01DX009 (ip), vehicle: saline with Tween-80): 119 % of control
T/C (dose: 3.12 mg/kg/injection, schedule: Q01DX009 (ip), vehicle: saline with Tween-80): 107 % of control
T/C [1]: 120 % of control

O=C(Oc1ccc(Cl)cc1)c1ccc(C(=O)Oc2ccc(Cl)cc2)cc1
T/C (dose: 176.0 mg/kg/injection, schedule: Q04DX003 (ip), vehicle: saline with Tween-80): 90 % of control
T/C (dose: 264.0 mg/kg/injection, schedule: Q04DX003 (ip), vehicle: saline with Tween-80): 100 % of control
T/C [3]: 90 % of control

CCCNC(=O)OCc1c(COC(=O)NCCC)c(-c2ccc(Cl)c(Cl)c2)n2c1CCC2
T/C (dose: 25.0 mg/kg/injection, schedule: Q01DX009 (ip), vehicle: other): 151 % of control
T/C (dose: 50.0 mg/kg/injection, schedule: Q01DX009 (ip), vehicle: other): 172 % of control

C/C(=N\OCc1cc2c(cc1Cl)OCO2)C(=O)O
T/C (dose: 100.0 mg/kg/injection, schedule: Q04DX003 (ip), vehicle: saline sonified): 113 % of control
T/C (dose: 200.0 mg/kg/injection, schedule: Q04DX003 (ip), vehicle: saline sonified): 109 % of control
T/C (dose: 400.0 mg/kg/injection, schedule: Q04DX003 (ip), vehicle: saline sonified): 109 % of control

Nc1cc(NC(=O)c2ccc(Cl)cc2)ccc1S(=O)(=O)O
T/C (dose: 3.12 mg/kg/injection, schedule: Q01DX009 (ip), vehicle: saline): 117 % of control
T/C [4]: 99 % of control
T/C (dose: 6.25 mg/kg/injection, schedule: Q04DX003 (ip), vehicle: Klucel (hydroxypropylcellulose) (HPC)): 95 % of control
T/C [5]: 90 % of control
T/C [6]: 106 % of control
T/C [7]: 87 % of control
T/C [8]: 93 % of control
T/C [9]: 98 % of control
T/C [10]: 97 % of control

C=CCOc1c(C)cc(C(C)(C)c2cc(C)c(OCC=C)c(C)c2)cc1C
T/C (dose: 25.0 mg/kg/injection, schedule: Q01DX001 (ip), vehicle: other): 104 % of control
T/C (dose: 50.0 mg/kg/injection, schedule: Q01DX001 (ip), vehicle: other): 109 % of control
T/C (dose: 100.0 mg/kg/injection, schedule: Q01DX001 (ip), vehicle: other): 95 % of control

CC(C)(C)C1=C[P+](c2ccccc2)(c2ccccc2)C(C(C)(C)C)=C[P+]1(c1ccccc1)c1ccccc1
T/C [5]: 96 % of control
T/C [11]: 96 % of control
T/C [7]: 107 % of control
T/C (dose: 25.0 mg/kg/injection, schedule: Q04DX003 (ip), vehicle: saline): 100 % of control
T/C (dose: 50.0 mg/kg/injection, schedule: Q04DX003 (ip), vehicle: saline): 96 % of control

Nc1c(O)nc[nH]c1=O
T/C (dose: 1.56 mg/kg/injection, schedule: Q01DX009 (ip), vehicle: saline): 95 % of control
T/C (dose: 3.13 mg/kg/injection, schedule: Q01DX009 (ip), vehicle: saline): 109 % of control and 100 % of control
T/C (dose: 3.13 mg/kg/injection, schedule: Q04DX003 (ip), vehicle: saline): 95 % of control
T/C [4]: 100 % of control
T/C (dose: 6.25 mg/kg/injection, schedule: Q04DX003 (ip), vehicle: saline): 86 % of control and 100 % of control
T/C [5]: 100 % of control
T/C [11]: 100 % of control

S
T/C [12]: 100 % of control
T/C [10]: 86 % of control
T/C [13]: 110 % of control
T/C (dose: 200.0 mg/kg/injection, schedule: Q04DX003 (ip), vehicle: Klucel (hydroxypropylcellulose) (HPC)): 100 % of control
T/C (dose: 400.0 mg/kg/injection, schedule: Q04DX003 (ip), vehicle: Klucel (hydroxypropylcellulose) (HPC)): 100 % of control

CC(=O)Oc1cccc2c1C(=O)c1c(OC(C)=O)cccc1C2=O
T/C (dose: 3.13 mg/kg/injection, schedule: Q04DX003 (ip), vehicle: Klucel (hydroxypropylcellulose) (HPC)): 101 % of control
T/C [6]: 99 % of control
T/C [8]: 117 % of control
T/C [9]: 108 % of control

O=C(CN1CCOCC1)Nc1cccc(C(F)(F)F)c1
T/C (dose: 100.0 mg/kg/injection, schedule: Q04DX003 (ip), vehicle: saline with Tween-80): 86 % of control
T/C (dose: 200.0 mg/kg/injection, schedule: Q04DX003 (ip), vehicle: saline with Tween-80): 86 % of control
T/C [3]: 109 % of control

CC(=O)NC(C(=O)N/N=C(\C)c1ccccc1)C(=O)N/N=C(\C)c1ccccc1
T/C [2]: 98 % of control
T/C [14]: 101 % of control
T/C [15]: 89 % of control

C=CCC(CC)C(=O)O (stereo not given)
T/C (dose: 50.0 mg/kg/injection, schedule: Q01DX009 (ip), vehicle: saline): 100 % of control
T/C [16]: 104 % of control

O=S(O)OS(=O)O
T/C (dose: 90.0 mg/kg/injection, schedule: Q01DX009 (ip), vehicle: saline): 105 % of control
T/C [16]: 100 % of control
T/C (dose: 100.0 mg/kg/injection, schedule: Q04DX003 (ip), vehicle: saline): 96 % of control
T/C (dose: 133.0 mg/kg/injection, schedule: Q01DX009 (ip), vehicle: saline): 95 % of control and 100 % of control
T/C (dose: 200.0 mg/kg/injection, schedule: Q01DX009 (ip), vehicle: saline): 100 % of control and 116 % of control
T/C (dose: 200.0 mg/kg/injection, schedule: Q04DX003 (ip), vehicle: saline): 92 % of control
T/C (dose: 400.0 mg/kg/injection, schedule: Q01DX009 (ip), vehicle: saline): 104 % of control
T/C (dose: 400.0 mg/kg/injection, schedule: Q04DX003 (ip), vehicle: saline): 96 % of control

CCO/C=C1\SC(=S)N(c2ccccc2OC)C1=O
T/C (dose: 25.0 mg/kg/injection, schedule: Q01DX009 (ip), vehicle: Klucel (hydroxypropylcellulose) (HPC)): 100 % of control
T/C (dose: 50.0 mg/kg/injection, schedule: Q01DX009 (ip), vehicle: Klucel (hydroxypropylcellulose) (HPC)): 112 % of control
T/C (dose: 88.0 mg/kg/injection, schedule: Q01DX009 (ip), vehicle: Klucel (hydroxypropylcellulose) (HPC)): 103 % of control
T/C (dose: 88.0 mg/kg/injection, schedule: Q01DX009 (ip), vehicle: saline with Tween-80): 122 % of control
T/C [12]: 94 % of control
T/C (dose: 132.0 mg/kg/injection, schedule: Q01DX009 (ip), vehicle: Klucel (hydroxypropylcellulose) (HPC)): 103 % of control
T/C [13]: 94 % of control and 123 % of control
T/C (dose: 300.0 mg/kg/injection, schedule: Q01DX009 (ip), vehicle: Klucel (hydroxypropylcellulose) (HPC)): 112 % of control

CC(=O)CC1c2c(ccc3c2OCO3)-c2ccc3cc4c(cc3c2N1C)OCO4 (stereo not given)
T/C (dose: 5.0 mg/kg/injection, schedule: Q01DX009 (ip), vehicle: Klucel (hydroxypropylcellulose) (HPC)): 95 % of control
T/C (dose: 10.0 mg/kg/injection, schedule: Q01DX009 (ip), vehicle: Klucel (hydroxypropylcellulose) (HPC)): 110 % of control
T/C (dose: 13.0 mg/kg/injection, schedule: Q01DX010 (ip), vehicle: saline): 100 % of control
T/C (dose: 20.0 mg/kg/injection, schedule: Q01DX009 (ip), vehicle: Klucel (hydroxypropylcellulose) (HPC)): 120 % of control
T/C (dose: 20.0 mg/kg/injection, schedule: Q01DX010 (ip), vehicle: saline): 105 % of control
T/C (dose: 30.0 mg/kg/injection, schedule: Q01DX010 (ip), vehicle: saline): 110 % of control
T/C (dose: 40.0 mg/kg/injection, schedule: Q01DX009 (ip), vehicle: Klucel (hydroxypropylcellulose) (HPC)): 115 % of control

CS(=O)C/C(=C/CCCl)c1cccs1 (stereo not given)
T/C [2]: 105 % of control
T/C [14]: 94 % of control
T/C [15]: 105 % of control
